Experimental data as given in PubChem BioAssay (NCI).
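Five compound concentrations were applied to cells in 96-well plates for 48 hours; endpoints were derived by simple linear interpolation of the resulting dose-response curve. Abbreviation: GI50, concentration required for 50% inhibition of growth. At the TGI there is no net growth.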

Columns and labels:
Assay in all cases: NCI-60 cell line screen, 48 h
MOLT-4 leukemia = tested on: MOLT-4 leukemia
SK-MEL-5 melanoma = tested on: SK-MEL-5 melanoma
IGROV1 ovarian = tested on: IGROV1 ovarian
HOP-62 NSCLC = tested on: HOP-62 NSCLC
CAKI-1 renal = tested on: CAKI-1 renal
UACC-62 melanoma = tested on: UACC-62 melanoma
COLO 205 colon = tested on: COLO 205 colon
HCT-15 colon = tested on: HCT-15 colon
SNB-75 CNS = tested on: SNB-75 CNS
U251 CNS = tested on: U251 CNS
OVCAR-8 ovarian = tested on: OVCAR-8 ovarian
NCI-H23 lung = tested on: NCI-H23 lung
SW-620 colon = tested on: SW-620 colon
HCT-116 colon = tested on: HCT-116 colon
UO-31 renal = tested on: UO-31 renal
OVCAR-4 ovarian = tested on: OVCAR-4 ovarian
HS 578T breast = tested on: HS 578T breast
NCI-H522 lung = tested on: NCI-H522 lung
ACHN renal = tested on: ACHN renal
LOX IMVI melanoma = tested on: LOX IMVI melanoma
RPMI-8226 leukemia = tested on: RPMI-8226 leukemia
CCRF-CEM leukemia = tested on: CCRF-CEM leukemia
PC-3 prostate = tested on: PC-3 prostate
NCI-H460 lung = tested on: NCI-H460 lung
SF-295 CNS = tested on: SF-295 CNS
SF-539 CNS = tested on: SF-539 CNS
SK-OV-3 ovarian = tested on: SK-OV-3 ovarian
SR leukemia = tested on: SR leukemia
SNB-19 CNS = tested on: SNB-19 CNS
MDA-MB-435 = tested on: MDA-MB-435
A549 NSCLC = tested on: A549 NSCLC
SF-268 CNS = tested on: SF-268 CNS
MDA-MB-231 breast = tested on: MDA-MB-231 breast
NCI/ADR-RES ovarian = tested on: NCI/ADR-RES ovarian
786-0 renal = tested on: 786-0 renal
SN12C renal = tested on: SN12C renal
HL-60(TB) leukemia = tested on: HL-60(TB) leukemia
SK-MEL-28 melanoma = tested on: SK-MEL-28 melanoma
HCC-2998 colon = tested on: HCC-2998 colon
OVCAR-5 ovarian = tested on: OVCAR-5 ovarian
RXF 393 renal = tested on: RXF 393 renal
HT29 colon = tested on: HT29 colon
SK-MEL-2 melanoma = tested on: SK-MEL-2 melanoma
UACC-257 melanoma = tested on: UACC-257 melanoma
M14 melanoma = tested on: M14 melanoma
NCI-H226 lung = tested on: NCI-H226 lung
A498 renal = tested on: A498 renal
BT-549 breast = tested on: BT-549 breast
T-47D breast = tested on: T-47D breast
OVCAR-3 ovarian = tested on: OVCAR-3 ovarian
DU-145 prostate = tested on: DU-145 prostate
K-562 leukemia = tested on: K-562 leukemia
KM12 colon = tested on: KM12 colon
MCF7 breast = tested on: MCF7 breast
HOP-92 NSCLC = tested on: HOP-92 NSCLC
MALME-3M melanoma = tested on: MALME-3M melanoma

Structure (SMILES): O=C1Nc2ccccc2/C1=C/C(=N/c1nnc(-c2ccccc2)s1)c1ccccc1
- GI50 (MOLT-4 leukemia): 2.23 µM
- TGI (MOLT-4 leukemia): 6.54 µM
- GI50 (SK-MEL-5 melanoma): 6.57 µM
- TGI (SK-MEL-5 melanoma): 17.9 µM
- GI50 (IGROV1 ovarian): 2.13 µM
- TGI (IGROV1 ovarian): 5.94 µM
- GI50 (HOP-62 NSCLC): 6.05 µM
- TGI (HOP-62 NSCLC): 18 µM
- GI50 (CAKI-1 renal): 2.58 µM
- TGI (CAKI-1 renal): 10.3 µM
- GI50 (UACC-62 melanoma): 1.72 µM
- TGI (UACC-62 melanoma): 3.74 µM
- GI50 (COLO 205 colon): 1.68 µM
- TGI (COLO 205 colon): 3.22 µM
- GI50 (HCT-15 colon): 1.63 µM
- TGI (HCT-15 colon): 4.01 µM
- GI50 (SNB-75 CNS): 3.7 µM
- TGI (SNB-75 CNS): 16.9 µM
- GI50 (U251 CNS): 4.91 µM
- TGI (U251 CNS): 17.7 µM
- GI50 (OVCAR-8 ovarian): 2.77 µM
- TGI (OVCAR-8 ovarian): 9.35 µM
- GI50 (NCI-H23 lung): 2.88 µM
- TGI (NCI-H23 lung): 11 µM
- GI50 (SW-620 colon): 1.2 µM
- TGI (SW-620 colon): 2.74 µM
- GI50 (HCT-116 colon): 1.34 µM
- TGI (HCT-116 colon): 2.92 µM
- GI50 (UO-31 renal): 1.45 µM
- TGI (UO-31 renal): 3.31 µM
- GI50 (OVCAR-4 ovarian): 2.63 µM
- TGI (OVCAR-4 ovarian): 12.2 µM
- GI50 (HS 578T breast): 2.71 µM
- TGI (HS 578T breast): 11.8 µM
- GI50 (NCI-H522 lung): 0.449 µM
- TGI (NCI-H522 lung): 1.06 µM
- GI50 (ACHN renal): 1.56 µM
- TGI (ACHN renal): 3 µM
- GI50 (LOX IMVI melanoma): 1.61 µM
- TGI (LOX IMVI melanoma): 3.21 µM
- GI50 (RPMI-8226 leukemia): 2.14 µM
- TGI (RPMI-8226 leukemia): 5.21 µM
- GI50 (CCRF-CEM leukemia): 1.47 µM
- TGI (CCRF-CEM leukemia): 4.72 µM
- GI50 (PC-3 prostate): 2 µM
- TGI (PC-3 prostate): 5.52 µM
- GI50 (NCI-H460 lung): 7.04 µM
- TGI (NCI-H460 lung): 21.9 µM
- GI50 (SF-295 CNS): 17.1 µM
- TGI (SF-295 CNS): 32.7 µM
- GI50 (SF-539 CNS): 1.99 µM
- TGI (SF-539 CNS): 4.64 µM
- GI50 (SK-OV-3 ovarian): 6.62 µM
- TGI (SK-OV-3 ovarian): 19.1 µM
- GI50 (SR leukemia): 0.957 µM
- TGI (SR leukemia): 6.76 µM
- GI50 (SNB-19 CNS): 12.3 µM
- TGI (SNB-19 CNS): 25 µM
- GI50 (MDA-MB-435): 2.96 µM
- TGI (MDA-MB-435): 9.32 µM
- GI50 (A549 NSCLC): 8.62 µM
- TGI (A549 NSCLC): 23.6 µM
- GI50 (SF-268 CNS): 4.3 µM
- TGI (SF-268 CNS): 16.1 µM
- GI50 (MDA-MB-231 breast): 1.92 µM
- TGI (MDA-MB-231 breast): 4.95 µM
- GI50 (NCI/ADR-RES ovarian): 3.1 µM
- TGI (NCI/ADR-RES ovarian): 10.3 µM
- GI50 (786-0 renal): 1.79 µM
- TGI (786-0 renal): 3.55 µM
- GI50 (SN12C renal): 2.07 µM
- TGI (SN12C renal): 5.69 µM
- GI50 (HL-60(TB) leukemia): 1.82 µM
- TGI (HL-60(TB) leukemia): 5.33 µM
- GI50 (SK-MEL-28 melanoma): 2.68 µM
- TGI (SK-MEL-28 melanoma): 6.93 µM
- GI50 (HCC-2998 colon): 8.58 µM
- TGI (HCC-2998 colon): 21.5 µM
- GI50 (OVCAR-5 ovarian): 2.09 µM
- TGI (OVCAR-5 ovarian): 6.63 µM
- GI50 (RXF 393 renal): 1.51 µM
- TGI (RXF 393 renal): 3.1 µM
- GI50 (HT29 colon): 2.1 µM
- TGI (HT29 colon): 5.37 µM
- GI50 (SK-MEL-2 melanoma): 2.55 µM
- TGI (SK-MEL-2 melanoma): 7.07 µM
- GI50 (UACC-257 melanoma): 3.81 µM
- TGI (UACC-257 melanoma): 10.6 µM
- GI50 (M14 melanoma): 3.87 µM
- TGI (M14 melanoma): 14.3 µM
- GI50 (NCI-H226 lung): 2.5 µM
- TGI (NCI-H226 lung): 8.28 µM
- GI50 (A498 renal): 6.78 µM
- TGI (A498 renal): 21 µM
- GI50 (BT-549 breast): 1.91 µM
- TGI (BT-549 breast): 3.96 µM
- GI50 (T-47D breast): 2.45 µM
- TGI (T-47D breast): 10.1 µM
- GI50 (OVCAR-3 ovarian): 1.38 µM
- TGI (OVCAR-3 ovarian): 2.8 µM
- GI50 (DU-145 prostate): 2.7 µM
- TGI (DU-145 prostate): 7.77 µM
- GI50 (K-562 leukemia): 1.69 µM
- TGI (K-562 leukemia): 11 µM
- GI50 (KM12 colon): 5.5 µM
- TGI (KM12 colon): 17.9 µM
- GI50 (MCF7 breast): 2.28 µM
- TGI (MCF7 breast): 11.3 µM
- GI50 (HOP-92 NSCLC): 0.987 µM
- TGI (HOP-92 NSCLC): 2.93 µM
- GI50 (MALME-3M melanoma): 2.17 µM
- TGI (MALME-3M melanoma): 6.67 µM
